The values that follow are results of earlier work, collected in PMC5454779 (Biochemistry, 2011).

For the series, the target named is ssDNA. The settings on record: read-out: Kd of cold shock protein A with ssDNA; single OB-fold; ref [9].

The Kd is a measure of binding affinity in units of concentration. In the case of “cold shock protein A: cold shock protein consisting of a single OB-fold”, the Kd is 6 µM.
